Measurements from US20180296456A1, “Decapeptide-12 Modulation of Sirtuin Gene Expression in Epidermal Keratinocyte Progenitors” (Escape Therapeutics, Inc., priority 2017, published 2018).

Experiments:
Type in all cases: cell-based
SIRT5 = SIRT5 transcription, semi-quantitative RT-PCR in human epidermal progenitors; details: 72 h
Description: (§1) Human neonatal epidermal progenitors (Thermo Fisher Scientific, NY) were seeded in 6-well plates at a density of 2×10^5 cells/well. Each well received 2 ml of Epilife media containing 60 μM calcium chloride (Thermo Fisher Scientific, NY). Plates were incubated in a humidified chamber at 37 degrees Celsius and 5 percent CO2. Twenty-four hours later, cells were treated with various concentrations of oxyresveratrol or decapeptide-12 dissolved in PBS containing 5 percent DMSO. Control wells received vehicle only (5 percent DMSO and PBS). Final concentration of DMSO in each well was 0.05 percent.
(§2) After a 72 hour incubation period, cells were trypsinized and total RNA extracted, using RNeasy kit (Qiagen, Valencia, Calif.) according to the manufacturer's protocol.
(§3) RNA concentration was determined using nanodrop (Thermo fisher scientific, NY). Two μg of total RNA were used to synthesize cDNA using oligo dT primers and TaqMan reverse transcription reagents (Thermo fisher scientific, NY). The reaction was carried out in DNA Engine Peltier Thermal Cycler (Bio-Rad, Hercules, Calif.). The annealing temperature was 25 degrees Celsius for 10 minutes, followed by first strand synthesis at 48 degrees Celsius for 1 hour, and heat inactivation at 95 degrees Celsius for 5 minutes.
(§4) The SIRT1-7 primers (table 1) were designed using Primer3. The semi-quantitative PCR reactions were performed on a DNA Engine Peltier Thermo Cycler (Bio-Rad, Hercules, Calif.). PCR was carried under the following conditions: denaturation at 94 degrees Celsius for 2 minutes and primer extension at 54 degrees Celsius for 30 seconds in 34 cycles for SIRT 1-7 and the housekeeping gene 18S.
(§5) Samples were run and resolved on a 1.5 percent agarose gel containing 0.5 μg/ml of ethidium bromide and imaged using the FluorChem HD2 Imaging System (Protein simple, San Jose, Calif.). Densitometry analysis was carried out using the AlphaEase FC software (Protein simple, San Jose, Calif.). Intensity ratios were calculated as the intensity value for each gene divided by the intensity value of the internal control gene 18S.
(§6) The effect of the decapeptides P4, P4A, P4B, and P4C upon the transcription levels of sirtuins 1-7 was evaluated. Table 4 summarizes transcription levels for all four decapeptides with the corresponding genes, at tested concentrations of: 10, 30, 50, 100, and 300 (all in μM).

SIRT1 = SIRT1 transcription, semi-quantitative RT-PCR in human epidermal progenitors; details: 72 h
Description: as §1, §2, §3, §4, §5, §6

SIRT2 = SIRT2 transcription, semi-quantitative RT-PCR in human epidermal progenitors; details: 72 h
Description: as §1, §2, §3, §4, §5, §6

[1] = test system: human epidermal progenitors; assay: Trypan blue dye exclusion cytotoxicity assay, 72 h, epidermal progenitors; details: human, 72 h
Description: Cellular toxicity was measured using a trypan blue dye exclusion assay. Cells were cultured in 6-well plates at a density of 4×10^5 cells/well. Each well received a different concentration of decapeptide-12 or oxyresveratrol (0, 3, 10, 30, 100, 300, and 1000 μM). Plates were incubated at 37 degrees Celsius in a humidified 5 percent CO2 chamber. After 72 h, an aliquot was taken and cells counted using a hemacytometer. Cytotoxicity was measured according to the following formula: [1−(# of cells in control−# of live cells in test sample)/# of cells in control]×100 percent.

SIRT7 = SIRT7 transcription, semi-quantitative RT-PCR in human epidermal progenitors; details: 72 h
Description: as §1, §2, §3, §4, §5, §6

SIRT4 = SIRT4 transcription, semi-quantitative RT-PCR in human epidermal progenitors; details: 72 h
Description: as §1, §2, §3, §4, §5, §6

[2] = test system: human epidermal progenitors; assay: in vitro; details: 72 h
Description: Proliferation rates were determined using a TACS® MTT Cell Proliferation Kit (R&D systems, Minneapolis, Minn.). Cells were seeded at 2.5×10^4/well in 96-well plates in a humidified atmosphere with 5 percent CO2 at 37 degrees Celsius. Twenty-four hours later, decapeptide-12 or oxyresveratrol were added to the corresponding wells at varying concentrations (0, 3, 10, 30, 100, 300, and 1000 μM), and cultures were then incubated for 72 hours. The remainder of the procedure was performed following the manufacturer's protocol.
Proliferation rates for three human cell lines (epidermal progenitors, melanoblasts, and fibroblasts) were determined using a TACS® MTT Cell Proliferation Kit. Cells were seeded at 2.5×10^4/well in 96-well plates in a humidified atmosphere with 5 percent CO2 at 37 degrees Celsius. Twenty-four hours later, the decapeptides were added to the corresponding wells at varying concentrations and incubated for 72 hours. The remainder of the procedure was performed following the manufacturer's protocol.

SIRT6 = SIRT6 transcription, semi-quantitative RT-PCR in human epidermal progenitors; details: 72 h
Description: as §1, §2, §3, §4, §5, §6

SIRT3 = SIRT3 transcription, semi-quantitative RT-PCR in human epidermal progenitors; details: 72 h
Description: as §1, §2, §3, §4, §5, §6

Oc1cc(O)cc(/C=C/c2ccc(O)cc2O)c1 [oxyresveratrol, Oxyresveratrol, reference compound]
SIRT5 transcription increase relative to control (SIRT5; 3 μM): 7.1 ± 1%
SIRT5 transcription increase relative to control (SIRT5; 10 μM): 12.3 ± 3%^
SIRT5 transcription increase relative to control (SIRT5; 30 μM): 45.1 ± 4.3%
SIRT5 transcription increase relative to control (SIRT5; 50 μM): 46 ± 4%
SIRT5 transcription increase relative to control (SIRT5; 100 μM): 36.1 ± 6.7%
SIRT5 transcription increase relative to control (SIRT5; 300 μM): 33.4 ± 7.1%
SIRT5 transcription increase relative to control (SIRT5; 500 μM): 35.1 ± 8.1%
SIRT5 transcription increase relative to control (SIRT5; 1000 μM): 37 ± 6.8%
SIRT1 transcription increase relative to control (SIRT1; 3 μM): 8.7 ± 1%
SIRT1 transcription increase relative to control (SIRT1; 10 μM): 45 ± 7.7%
SIRT1 transcription increase relative to control (SIRT1; 30 μM): 125±9%
SIRT1 transcription increase relative to control (SIRT1; 30 μM, listed as Oxy): 124.5 ± 8.6%
SIRT1 transcription increase relative to control (SIRT1; 50 μM): 166 ± 14.5%
SIRT1 transcription increase relative to control (SIRT1; 100 μM): 187 ± 16.6%
SIRT1 transcription increase relative to control (SIRT1; 300 μM): 187 ± 15.4%
SIRT1 transcription increase relative to control (SIRT1; 500 μM): 176 ± 10%^
SIRT1 transcription increase relative to control (SIRT1; 1000 μM): 175 ± 9%
SIRT2 transcription increase relative to control (SIRT2; 3 μM): 7.9 ± 2%
SIRT2 transcription increase relative to control (SIRT2; 10 μM): 14.9 ± 1.9%
SIRT2 transcription increase relative to control (SIRT2; 30 μM): 43.1 ± 2.4%
SIRT2 transcription increase relative to control (SIRT2; 50 μM): 56.3 ± 7.7%
SIRT2 transcription increase relative to control (SIRT2; 100 μM): 41.2 ± 8.1%
SIRT2 transcription increase relative to control (SIRT2; 300 μM): 39 ± 9.3%
SIRT2 transcription increase relative to control (SIRT2; 500 μM): 33.1 ± 12.4%
SIRT2 transcription increase relative to control (SIRT2; 1000 μM): 31.2 ± 12.3%
cell death ([1]; 100 μM): 6±1%
cell death ([1]; 1 mM): 16±2%
SIRT7 transcription increase relative to control (SIRT7; 3 μM): 6.3 ± 1%
SIRT7 transcription increase relative to control (SIRT7; 10 μM): 65 ± 2.9%
SIRT7 transcription increase relative to control (SIRT7; 30 μM): 95±7%
SIRT7 transcription increase relative to control (SIRT7; 30 μM, listed as Oxy): 95 ± 6.7%
SIRT7 transcription increase relative to control (SIRT7; 50 μM): 114 ± 8.1%
SIRT7 transcription increase relative to control (SIRT7; 100 μM): 132 ± 7.6%
SIRT7 transcription increase relative to control (SIRT7; 300 μM): 168 ± 4.8%
SIRT7 transcription increase relative to control (SIRT7; 500 μM): 177 ± 6.6%
SIRT7 transcription increase relative to control (SIRT7; 1000 μM): 165 ± 5.1%
SIRT4 transcription increase relative to control (SIRT4; 3 μM): 8.1 ± 1%
SIRT4 transcription increase relative to control (SIRT4; 10 μM): 12.4 ± 2.1%
SIRT4 transcription increase relative to control (SIRT4; 30 μM): 49 ± 6.7%
SIRT4 transcription increase relative to control (SIRT4; 50 μM): 52.1 ± 6.6%
SIRT4 transcription increase relative to control (SIRT4; 100 μM): 64.1 ± 7.4%
SIRT4 transcription increase relative to control (SIRT4; 300 μM): 67 ± 8.7%
SIRT4 transcription increase relative to control (SIRT4; 500 μM): 61.2 ± 8.8%
SIRT4 transcription increase relative to control (SIRT4; 1000 μM): 71.3 ± 9.2%
reduced cell proliferation ([2]; 300 μM): 5±1%
reduced cell proliferation ([2]; 1 mM): 12±2%
SIRT6 transcription increase relative to control (SIRT6; 3 μM): 6.1 ± 1%
SIRT6 transcription increase relative to control (SIRT6; 10 μM): 34 ± 5.5%
SIRT6 transcription increase relative to control (SIRT6; 30 μM): 73±8%
SIRT6 transcription increase relative to control (SIRT6; 30 μM, listed as Oxy): 73 ± 8.1%
SIRT6 transcription increase relative to control (SIRT6; 50 μM): 81.3 ± 8.1%
SIRT6 transcription increase relative to control (SIRT6; 100 μM): 82.4 ± 8.4%
SIRT6 transcription increase relative to control (SIRT6; 300 μM): 87.4 ± 9.3%
SIRT6 transcription increase relative to control (SIRT6; 500 μM): 81.2 ± 12.4%
SIRT6 transcription increase relative to control (SIRT6; 1000 μM): 75 ± 15.1%
SIRT3 transcription increase relative to control (SIRT3; 3 μM): 10 ± 3%
SIRT3 transcription increase relative to control (SIRT3; 10 μM): 52.7 ± 5.1%
SIRT3 transcription increase relative to control (SIRT3; 30 μM): 133±5%
SIRT3 transcription increase relative to control (SIRT3; 30 μM, listed as Oxy): 133 ± 4.8%
SIRT3 transcription increase relative to control (SIRT3; 50 μM): 156 ± 9.2%
SIRT3 transcription increase relative to control (SIRT3; 100 μM): 148 ± 7.3%
SIRT3 transcription increase relative to control (SIRT3; 300 μM): 152.2 ± 9%
SIRT3 transcription increase relative to control (SIRT3; 500 μM): 151 ± 8.1%
SIRT3 transcription increase relative to control (SIRT3; 1000 μM): 151 ± 7.4%
